Source: the NIST ThermoML archive (doi:10.1021/acs.jced.7b00494)

Conditions: 99.6 kPa, Liquid; for kinematic viscosity: Capillary tube (Ostwald / Ubbelohde) method; for mass density: Vibrating tube method

CNC(C)=O [N-methylacetamide]
Conditions | kinematic viscosity [m2/s] | mass density [kg/m3]
308.15 K | 3.79e-06 | 945.85
313.15 K | 3.35e-06 | 941.63
318.15 K | 2.99e-06 | 937.44
323.15 K | 2.68e-06 | 933.24
328.15 K | 2.42e-06 | 929.07
